# Reference: article PMC10887108, “Novel Brain-Penetrant, Small-Molecule Tubulin Destabilizers for the Treatment of Glioblastoma” (Biomedicines, 2024)
# Tested on: HMC3 microglial cells (non-tumorigenic)
# Assay: alamarBlue cell viability assay, HMC3
# Assay type: cell-based, human
# Details: HMC3, up to 10 μM
# Protocol: Cells (100 µL/well) were seeded in 96-well tissue culture plates (Greiner Bio-One 650090; Kremsmünster, Austria). The plating density (cells/well) for each cell line was as follows: LN-18 (3000), U87 (4000), and HMC3 (5000). After overnight incubation, compounds were added to the cells (50 µL at 3× concentration, final 0.1% DMSO), and plates were incubated for 72 h. Cell viability was assessed by the addition of 25 µL of alamarBlue for a final concentration of 100 µM final concentration (Resazurin redox reagent, Sigma-Aldrich R7017; St. Louis, MO, USA). After a 4 h incubation, fluorescence was read on a CLARIOstar Plus plate reader (BMG Labtech, Ortenberg, Germany) at EX 570/EM 590 nm.
structure (smiles),measurement,value
CO[C@H]1C[C@@H](C(=O)NC(=O)Nc2ccc(Oc3ccc(Cl)cn3)c(C)c2)C1 [RGN3067],inhibition of cell viability,does not significantly inhibit
